# How the values were obtained:
# [1] = test system: Escherichia coli (live cells) and contaminants originated in UHT homogenized milk; assay type: cell-based; conditions: treatment after LP treatment, 37° C.; amsacrine 10 minutes, others 30 minutes; 7.5×10^6 cfu/ml
# Text: Specific procedures are as shown in a) to d) described below.
# [2] = test system: Listeria monocytogenes JCM 2873; assay: Colony formation of Listeria cultured with ampicillin and gentamycin; assay type: cell-based; conditions: ampicillin 500 μg/ml together with gentamycin 200 μg/ml, 30° C. for 3 weeks
# [3] = test system: Mycobacterium tuberculosis H37RA; assay type: cell-based
# Escherichia coli DH5α = assay: FCM measurement after SYTO9/PI staining of EMA-treated Escherichia coli suspensions (live, injured, dead cells); assay type: cell-based
# [4] = test system: Staphylococcus epidermidis KD strain; assay: FCM measurement after SYTO9/PI staining of LP-treated and EMA-treated Staphylococcus epidermidis suspensions; assay type: cell-based; conditions: EMA treatment after LP treatment; 10 μl of 1000 μg/ml EMA to 1 ml, 4° C. 30 minutes, visible light 500 W 10 minutes
# [5] = test system: Escherichia coli (injured cells); assay type: cell-based; conditions: injured cells inoculated at 1.5×10^6 cfu/ml; LP treatment and EMA treatment
# [6] = test system: chromosomal DNA of Escherichia coli DH5α; assay: Agarose gel electrophoresis of chromosomal DNA after EMA treatment, Escherichia coli; assay type: cell-based; design: key: presence of this band was indicated as (+); absence of this band was indicated as (−)
# [7] = test system: chromosomal DNA of Klebsiella oxytoca JCM 1665; assay: Agarose gel electrophoresis of chromosomal DNA after EMA treatment, Klebsiella; assay type: cell-based; design: key: presence of this band was indicated as (+); absence of this band was indicated as (−); conditions: EMA 4° C. 30 minutes
# [8] = test system: chromosomal DNA of Citrobacter koseri JCM 1658; assay: Agarose gel electrophoresis of chromosomal DNA after EMA treatment, Citrobacter; assay type: cell-based; design: key: presence of this band was indicated as (+); absence of this band was indicated as (−); conditions: EMA 4° C. 30 minutes
# [9] = test system: chromosomal DNA of Salmonella enteritidis IID 604; assay: Agarose gel electrophoresis of chromosomal DNA after EMA treatment, Salmonella; assay type: cell-based; design: key: presence of this band was indicated as (+); absence of this band was indicated as (−); conditions: EMA 4° C. 30 minutes
# [10] = test system: contaminants in heparinized human blood; assay: FCM of human blood by EMA-LNP-FP method versus LNP-FP method; assay type: cell-based; conditions: 10 μl of 1000 μg/ml EMA to 1 ml blood, 4° C. 5 minutes, visible light 5 minutes
# Procedure: Heparinized blood (type A) was collected from a healthy human subject, and a Listeria live cell suspension of 1.8×10^8 cfu/ml was diluted 10 times with the blood. The suspension was further serially diluted with the blood to prepare blood inoculated with 1.8×10^3 to […] cfu/ml of Listeria monocytogenes (live cells). […] Then, each sample was irradiated with visible light of 500 W for 5 minutes on ice. 750 μl of physiological saline, 200 μl of a 189 U/ml lipase solution and 10 μl of a 10000 U/ml deoxyribonuclease solution was added to each sample, and the sample was maintained at 30° C. for 30 minutes. […] The total volume of the aforementioned EMA-treated blood was carefully overlaid on 2 ml of Ficoll Paque filled beforehand in a 15 ml volume polypropylene tube, and subjected to centrifugation at 100×g for 5 minutes. […] The same procedure as that of the aforementioned method (referred to as the “EMA-LNP-FP method”) was also performed in parallel except that the EMA treatment was not performed (referred to as the “LNP-FP method”) to prepare a sample for FCM measurement.
# [11] = test system: Mycobacterium tuberculosis H37RA; assay: FCM after SYTO9/PI staining of EMA-treated Mycobacterium tuberculosis (live, injured, dead cells)
# [12] = test system: contaminants of somatic cells and injured cells in LTLT non-homogenized milk; assay: FCM after SYTO9/PI staining of LP-treated and EMA-treated LTLT non-homogenized milk not inoculated with bacteria; conditions: LP-treated and EMA-treated (LPE-treated) LTLT non-homogenized milk not inoculated
# Procedure: Each of the LTLT non-homogenized milk inoculated with Escherichia coli (live cells), LTLT non-homogenized milk inoculated with Staphylococcus epidermidis (live cells), and LTLT non-homogenized milk not inoculated with the bacteria was subjected to the same lipase treatment and proteinase K treatment (LP treatment) as well as EMA treatment as those in Example 2.
# FCM measurement was performed for each of the samples prepared above (measurement time: 5 minutes) in the same manner as that in Control Example 1.
# [13] = after the EMA treatment, dead cells (boiling water 12 minutes)
# [14] = after the EMA treatment, injured cells (boiling water 50 seconds)
# [15] = after the EMA treatment, live cells
# [16] = after the EMA treatment (about 30 μg/ml, 4° C. 2.5 hours), injured cells treated with isonicotinic acid hydrazide and rifampicin
molecule,measurement,setting,value
O=C(O)c1cn(C2CC2)c2cc(N3CCNCC3)c(F)cc2c1=O [ciprofloxacin],separation of plotted areas of Escherichia coli (live cells) and contaminants,[1],clearly separated
CC1(C)S[C@@H]2[C@H](NC(=O)[C@H](N)c3ccccc3)C(=O)N2[C@H]1C(=O)O [ampicillin],colony formation on L agar medium,[2],did not form colonies
NNC(=O)c1ccncc1 [isonicotinic acid hydrazide],colony formation on 7H10 medium,[3],did not form colonies
"CC[n+]1c(-c2ccccc2)c2cc(N=[N+]=[N-])ccc2c2ccc(N)cc21.[Cl-] [EMA, 8-azido-3-amino-6-phenyl-5-ethylphenanthradinium chloride]",distinction of live cells and injured cells by FCM,"Escherichia coli DH5α; EMA treatment after LP treatment, 10 μl of 1000 μg/ml EMA to 1 ml, 4° C. 30 minutes, visible light 500 W 10 minutes",clearly distinguish
same,intensity of staining with SYTO9 for injured cells,Escherichia coli DH5α; after the EMA treatment versus before,markedly decreased
same,"PI region of main distribution, dead cells",Escherichia coli DH5α; [13],"PI(+) (The boundary value of the intensity of the staining with PI is defined to be an intensity of 2×10^2, results exceeding that value are represented as PI(+))"
same,"SYTO9 region of main distribution, dead cells",Escherichia coli DH5α; [13],SYTO9(−) (results lower than that value are represented as SYTO9(−))
same,"PI region of main distribution, injured cells",Escherichia coli DH5α; [14],PI(−) (results lower than that value are represented as PI(−))
same,"SYTO9 region of main distribution, injured cells",Escherichia coli DH5α; [14],SYTO9(−) (results lower than that value are represented as SYTO9(−))
same,"PI region of main distribution, live cells",Escherichia coli DH5α; [15],PI(−) (results lower than that value are represented as PI(−))
same,"SYTO9 region of main distribution, live cells",Escherichia coli DH5α; [15],"SYTO9(+) (The boundary value of the intensity of the staining with SYTO9 is defined to be an intensity of 10^3, results exceeding that value are represented as SYTO9(+))"
same,distinction of live cells and injured cells by FCM,[4],the same results
same,plotted points in the SYTO9(+)·PI(−) region suggesting the presence of live cells,[5],hardly existed
same,"LL band originated in chromosomal DNA, dead cells",[6]; EMA-treated dead cells (FIG. 11),(−)
same,"LL band originated in chromosomal DNA, injured cells","[6]; EMA-treated injured cells, EMA 4° C. 30 minutes",(−)
same,"LL band originated in chromosomal DNA, live cells","[6]; EMA-treated live cells, EMA 4° C. 30 minutes",(+)
same,"LL band originated in chromosomal DNA, injured cells",[7]; EMA-treated injured cells,(−)
same,"LL band originated in chromosomal DNA, live cells",[7]; EMA-treated live cells,(+)
same,"LL band originated in chromosomal DNA, injured cells",[8]; EMA-treated injured cells,(−)
same,"LL band originated in chromosomal DNA, live cells",[8]; EMA-treated live cells,(+)
same,"LL band originated in chromosomal DNA, injured cells",[9]; EMA-treated injured cells,(−)
same,"LL band originated in chromosomal DNA, live cells",[9]; EMA-treated live cells,(+)
same,shift of plotted points of the contaminants corresponding to SYTO9(−)·PI(−),[10],not shifted to the left direction
same,"PI region, injured cells",[11]; [16],PI(−) (results lower than that value are represented as PI(−))
same,"SYTO9 region, injured cells",[11]; [16],SYTO9(−) (results lower than that value are represented as SYTO9(−))
same,"SYTO9 region of main distribution, dead cells",[11]; [13],"SYTO9(+) (The boundary value of the intensity of the staining with SYTO9 is defined to be an intensity of 10^3, results exceeding that value are represented as SYTO9(+))"
same,SYTO9 intensity of the injured cells,[11]; by the EMA treatment,markedly shifted to the left direction
same,SYTO9 intensity,[12],below 5×10^2
CC[C@@]1(O)C(=O)OCc2c1cc1n(c2=O)Cc2cc3ccccc3nc2-1 [camptothecin],separation of plotted areas of Escherichia coli (live cells) and contaminants,[1],clearly separated
gentamycin,colony formation on L agar medium,[2],did not form colonies
Cc1c2ccncc2c(C)c2c1[nH]c1ccccc12 [ellipticine],separation of plotted areas of Escherichia coli (live cells) and contaminants,[1],clearly separated
